Test results from patent publication US10870638B2, “Pyridazinone compound or its salt, and herbicide containing it” (ISHIHARA SANGYO KAISHA, LTD., priority 2016, dated 2020).

Tests used:
Format in all cases: in vivo
Settings in all cases: active ingredient amount 31 g/ha, 14th day after application
[1] = test system: green foxtail (Setaria viridis L.); experiment: Test Example 1: foliar treatment, growth inhibition rate on 14th day
Summary of the method: (§1)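 Sow seeds in upland soil pots; at target leaf stage (wild oat 0.4–1.2, rice 0.2–2.7, foxtail 0.5–3.2, soybean primary leaf) spray formulated compound in water, 1,000 L/ha, 0.1 vol % surfactant. Score inhibition visually at day 14, 0–100%.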

[2] = test system: redroot pigweed (Amaranthus retroflexus L.); experiment: as above
Summary of the method: (§2)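 Using a small sprayer, formulated compound in water (0.1 vol % surfactant, 1,000 L/ha) was applied to seedlings grown from seed in upland soil. Fourteen days on, growth state was observed and expressed as percent inhibition from 0 to 100.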

[3] = test system: crabgrass (Digitaria sanquinalis L.); experiment: as above
Summary of the method: as §2

corn (Zea mays L.) [4] = experiment: as above
Summary of the method: as §2

[5] = test system: barnyardgrass (Echinochloa crus-qalli L.); experiment: as above
Summary of the method: as §2

rice (Oryza sativa L.) [6] = experiment: as above
Summary of the method: as §1

[7] = test system: soybean (Glycine max Merr.); experiment: as above
Summary of the method: as §1

[8] = test system: wheat (Triticum aestivum L.); experiment: as above
Summary of the method: as §2

[9] = test system: italian ryegrass (Lolium multiflorum Lam.); experiment: as above
Summary of the method: as §2

[10] = test system: wild oat (Avena fatua L.); experiment: as above
Summary of the method: as §1

[11] = test system: prickly sida (Sida spinosa L.); experiment: Test Example 2: soil application on the day after sowing, growth inhibition rate on 14th day
Summary of the method: (§3)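 Field soil in 1/300,000 ha pots was sown, and the next day compounds formulated as wettable powders or emulsifiable concentrates were diluted in water (1,000 L/ha) and soil-sprayed at the prescribed active ingredient rates. Growth inhibition was scored visually 14 days later, 0 (untreated) to 100 (complete kill).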

[12] = test system: green foxtail (Setaria viridis L.); experiment: as above
Summary of the method: as §3

[13] = test system: redroot pigweed (Amaranthus retroflexus L.); experiment: as above
Summary of the method: as §3

corn (Zea mays L.) [14] = experiment: as above
Summary of the method: as §3

[15] = test system: barnyardgrass (Echinochloa crus-qalli L.); experiment: as above
Summary of the method: as §3

rice (Oryza sativa L.) [16] = experiment: as above
Summary of the method: as §3

[17] = test system: soybean (Glycine max Merr.); experiment: as above
Summary of the method: as §3

[18] = test system: wheat (Triticum aestivum L.); experiment: as above
Summary of the method: as §3

[19] = test system: crabgrass (Digitaris sanquinalis L.); experiment: as above
Summary of the method: as §3

[20] = test system: velvetleaf (Abutilon theophrasti MEDIC.); experiment: as above
Summary of the method: as §3

## Cc1ccc(Oc2nc3ccc(Br)cc3s2)cc1-c1c(O)c(C)nn(C)c1=O [Compound 2-156]
[1]
  Growth inhibition rate (%) Green foxtail: 98%
[2]
  Growth inhibition rate (%) Redroot pigweed: 0%
[3]
  Growth inhibition rate (%) Crabgrass: 93%
Corn (Zea mays L.) [4]
  Growth inhibition rate (%) Corn: 0%
[5]
  Growth inhibition rate (%) Barnyardgrass: 98%
Rice (Oryza sativa L.) [6]
  Growth inhibition rate (%) Rice: 0%
[7]
  Growth inhibition rate (%) Soybean: 0%
[8]
  Growth inhibition rate (%) Wheat: 0%
[9]
  Growth inhibition rate (%) Italian ryegrass: 30%
[10]
  Growth inhibition rate (%) Wild oat: 10%
[11]
  Growth inhibition rate (%) Prickly sida: 0%
[12]
  Growth inhibition rate (%) Green foxtail: 98%
[13]
  Growth inhibition rate (%) Redroot pigweed: 0%
Corn (Zea mays L.) [14]
  Growth inhibition rate (%) Corn: 0%
[15]
  Growth inhibition rate (%) Barnyardgrass: 83%
Rice (Oryza sativa L.) [16]
  Growth inhibition rate (%) Rice: 15%
[17]
  Growth inhibition rate (%) Soybean: 0%
[18]
  Growth inhibition rate (%) Wheat: 0%
[19]
  Growth inhibition rate (%) Crabgrass: 75%
[20]
  Growth inhibition rate (%) Velvetleaf: 0%

## Cc1ccc(Oc2nc3cc(Cl)ccc3o2)cc1-c1c(O)cnn(C)c1=O [Compound 2-173]
[1]
  Growth inhibition rate (%) Green foxtail: 88%
[2]
  Growth inhibition rate (%) Redroot pigweed: 0%
[3]
  Growth inhibition rate (%) Crabgrass: 95%
Corn (Zea mays L.) [4]
  Growth inhibition rate (%) Corn: 65%
[5]
  Growth inhibition rate (%) Barnyardgrass: 99%
Rice (Oryza sativa L.) [6]
  Growth inhibition rate (%) Rice: 85%
[7]
  Growth inhibition rate (%) Soybean: 0%
[8]
  Growth inhibition rate (%) Wheat: 75%
[9]
  Growth inhibition rate (%) Italian ryegrass: 90%
[10]
  Growth inhibition rate (%) Wild oat: 35%
[11]
  Growth inhibition rate (%) Prickly sida: 0%
[12]
  Growth inhibition rate (%) Green foxtail: 10%
[13]
  Growth inhibition rate (%) Redroot pigweed: 0%
Corn (Zea mays L.) [14]
  Growth inhibition rate (%) Corn: 10%
[15]
  Growth inhibition rate (%) Barnyardgrass: 65%
Rice (Oryza sativa L.) [16]
  Growth inhibition rate (%) Rice: 20%
[17]
  Growth inhibition rate (%) Soybean: 0%
[18]
  Growth inhibition rate (%) Wheat: 0%
[19]
  Growth inhibition rate (%) Crabgrass: 80%
[20]
  Growth inhibition rate (%) Velvetleaf: 0%

## Cc1ccc(Oc2cc(C(F)(F)F)c(C(F)(F)F)cn2)cc1-c1c(O)c(C)nn(C)c1=O [Compound 2-93]
[1]
  Growth inhibition rate (%) Green foxtail: 100%
[2]
  Growth inhibition rate (%) Redroot pigweed: 20%
[3]
  Growth inhibition rate (%) Crabgrass: 99%
Corn (Zea mays L.) [4]
  Growth inhibition rate (%) Corn: 95%
[5]
  Growth inhibition rate (%) Barnyardgrass: 100%
Rice (Oryza sativa L.) [6]
  Growth inhibition rate (%) Rice: 0%
[7]
  Growth inhibition rate (%) Soybean: 10%
[8]
  Growth inhibition rate (%) Wheat: 0%
[9]
  Growth inhibition rate (%) Italian ryegrass: 88%
[10]
  Growth inhibition rate (%) Wild oat: 30%
[11]
  Growth inhibition rate (%) Prickly sida: 0%
[12]
  Growth inhibition rate (%) Green foxtail: 99%
[13]
  Growth inhibition rate (%) Redroot pigweed: 0%
Corn (Zea mays L.) [14]
  Growth inhibition rate (%) Corn: 0%
[15]
  Growth inhibition rate (%) Barnyardgrass: 100%
Rice (Oryza sativa L.) [16]
  Growth inhibition rate (%) Rice: 0%
[17]
  Growth inhibition rate (%) Soybean: 0%
[18]
  Growth inhibition rate (%) Wheat: 0%
[19]
  Growth inhibition rate (%) Crabgrass: 99%
[20]
  Growth inhibition rate (%) Velvetleaf: 0%

## CC(=O)Oc1cnn(C)c(=O)c1-c1cc(Oc2ncc(C(F)(F)F)cc2Cl)ccc1C [1-171]
[1]
  Growth inhibition rate (%) Green foxtail: 100%
[2]
  Growth inhibition rate (%) Redroot pigweed: 0%
[3]
  Growth inhibition rate (%) Crabgrass: 100%
Corn (Zea mays L.) [4]
  Growth inhibition rate (%) Corn: 100%
[5]
  Growth inhibition rate (%) Barnyardgrass: 100%
Rice (Oryza sativa L.) [6]
  Growth inhibition rate (%) Rice: 85%
[7]
  Growth inhibition rate (%) Soybean: 0%
[8]
  Growth inhibition rate (%) Wheat: 83%
[9]
  Growth inhibition rate (%) Italian ryegrass: 100%
[10]
  Growth inhibition rate (%) Wild oat: 100%
[11]
  Growth inhibition rate (%) Prickly sida: 0%
[12]
  Growth inhibition rate (%) Green foxtail: 100%
[13]
  Growth inhibition rate (%) Redroot pigweed: 0%
Corn (Zea mays L.) [14]
  Growth inhibition rate (%) Corn: 0%
[15]
  Growth inhibition rate (%) Barnyardgrass: 100%
Rice (Oryza sativa L.) [16]
  Growth inhibition rate (%) Rice: 0%
[17]
  Growth inhibition rate (%) Soybean: 0%
[18]
  Growth inhibition rate (%) Wheat: 0%
[19]
  Growth inhibition rate (%) Crabgrass: 100%
[20]
  Growth inhibition rate (%) Velvetleaf: 0%

## Cc1ccc(Oc2nc3ccc(F)cc3s2)cc1-c1c(O)c(C)nn(C)c1=O [Compound 2-155]
[1]
  Growth inhibition rate (%) Green foxtail: 60%
[2]
  Growth inhibition rate (%) Redroot pigweed: 0%
[3]
  Growth inhibition rate (%) Crabgrass: 40%
Corn (Zea mays L.) [4]
  Growth inhibition rate (%) Corn: 10%
[5]
  Growth inhibition rate (%) Barnyardgrass: 78%
Rice (Oryza sativa L.) [6]
  Growth inhibition rate (%) Rice: 0%
[7]
  Growth inhibition rate (%) Soybean: 0%
[8]
  Growth inhibition rate (%) Wheat: 25%
[9]
  Growth inhibition rate (%) Italian ryegrass: 10%
[10]
  Growth inhibition rate (%) Wild oat: 0%
[11]
  Growth inhibition rate (%) Prickly sida: 0%
[12]
  Growth inhibition rate (%) Green foxtail: 88%
[13]
  Growth inhibition rate (%) Redroot pigweed: 0%
Corn (Zea mays L.) [14]
  Growth inhibition rate (%) Corn: 0%
[15]
  Growth inhibition rate (%) Barnyardgrass: 85%
Rice (Oryza sativa L.) [16]
  Growth inhibition rate (%) Rice: 70%
[17]
  Growth inhibition rate (%) Soybean: 0%
[18]
  Growth inhibition rate (%) Wheat: 0%
[19]
  Growth inhibition rate (%) Crabgrass: 83%
[20]
  Growth inhibition rate (%) Velvetleaf: 0%

## Cc1cc(C)c(-c2c(O)c(C)nn(C)c2=O)cc1Oc1ncc(C(F)(F)F)cc1Cl [1-14]
[1]
  Growth inhibition rate (%) Green foxtail: 98%
[2]
  Growth inhibition rate (%) Redroot pigweed: 0%
[3]
  Growth inhibition rate (%) Crabgrass: 93%
Corn (Zea mays L.) [4]
  Growth inhibition rate (%) Corn: 70%
[5]
  Growth inhibition rate (%) Barnyardgrass: 98%
Rice (Oryza sativa L.) [6]
  Growth inhibition rate (%) Rice: 80%
[7]
  Growth inhibition rate (%) Soybean: 0%
[8]
  Growth inhibition rate (%) Wheat: 0%
[9]
  Growth inhibition rate (%) Italian ryegrass: 85%
[10]
  Growth inhibition rate (%) Wild oat: 95%
[11]
  Growth inhibition rate (%) Prickly sida: 0%
[12]
  Growth inhibition rate (%) Green foxtail: 93%
[13]
  Growth inhibition rate (%) Redroot pigweed: 0%
Corn (Zea mays L.) [14]
  Growth inhibition rate (%) Corn: 0%
[15]
  Growth inhibition rate (%) Barnyardgrass: 99%
Rice (Oryza sativa L.) [16]
  Growth inhibition rate (%) Rice: 0%
[17]
  Growth inhibition rate (%) Soybean: 0%
[18]
  Growth inhibition rate (%) Wheat: 0%
[19]
  Growth inhibition rate (%) Crabgrass: 83%
[20]
  Growth inhibition rate (%) Velvetleaf: 0%

## CC(=O)Oc1c(C)nn(C)c(=O)c1-c1cc(Oc2nc3ccc(C(F)(F)F)nc3o2)ccc1C [Compound 2-121]
[1]
  Growth inhibition rate (%) Green foxtail: 100%
[2]
  Growth inhibition rate (%) Redroot pigweed: 20%
[3]
  Growth inhibition rate (%) Crabgrass: 98%
Corn (Zea mays L.) [4]
  Growth inhibition rate (%) Corn: 20%
[5]
  Growth inhibition rate (%) Barnyardgrass: 100%
Rice (Oryza sativa L.) [6]
  Growth inhibition rate (%) Rice: 90%
[7]
  Growth inhibition rate (%) Soybean: 0%
[8]
  Growth inhibition rate (%) Wheat: 78%
[9]
  Growth inhibition rate (%) Italian ryegrass: 98%
[10]
  Growth inhibition rate (%) Wild oat: 98%
[11]
  Growth inhibition rate (%) Prickly sida: 0%
[12]
  Growth inhibition rate (%) Green foxtail: 100%
[13]
  Growth inhibition rate (%) Redroot pigweed: 0%
Corn (Zea mays L.) [14]
  Growth inhibition rate (%) Corn: 20%
[15]
  Growth inhibition rate (%) Barnyardgrass: 100%
Rice (Oryza sativa L.) [16]
  Growth inhibition rate (%) Rice: 0%
[17]
  Growth inhibition rate (%) Soybean: 0%
[18]
  Growth inhibition rate (%) Wheat: 0%
[19]
  Growth inhibition rate (%) Crabgrass: 98%
[20]
  Growth inhibition rate (%) Velvetleaf: 0%

## CCn1ncc(O)c(-c2cc(Oc3ncc(C(F)(F)F)cc3Cl)ccc2C)c1=O [1-157]
[1]
  Growth inhibition rate (%) Green foxtail: 100%
[2]
  Growth inhibition rate (%) Redroot pigweed: 0%
[3]
  Growth inhibition rate (%) Crabgrass: 100%
Corn (Zea mays L.) [4]
  Growth inhibition rate (%) Corn: 100%
[5]
  Growth inhibition rate (%) Barnyardgrass: 100%
Rice (Oryza sativa L.) [6]
  Growth inhibition rate (%) Rice: 80%
[7]
  Growth inhibition rate (%) Soybean: 20%
[8]
  Growth inhibition rate (%) Wheat: 93%
[9]
  Growth inhibition rate (%) Italian ryegrass: 99%
[10]
  Growth inhibition rate (%) Wild oat: 100%
[11]
  Growth inhibition rate (%) Prickly sida: 0%
[12]
  Growth inhibition rate (%) Green foxtail: 100%
[13]
  Growth inhibition rate (%) Redroot pigweed: 0%
Corn (Zea mays L.) [14]
  Growth inhibition rate (%) Corn: 0%
[15]
  Growth inhibition rate (%) Barnyardgrass: 100%
Rice (Oryza sativa L.) [16]
  Growth inhibition rate (%) Rice: 40%
[17]
  Growth inhibition rate (%) Soybean: 30%
[18]
  Growth inhibition rate (%) Wheat: 0%
[19]
  Growth inhibition rate (%) Crabgrass: 99%
[20]
  Growth inhibition rate (%) Velvetleaf: 0%

## Cc1ccc(Oc2nc3ccc(Cl)cc3o2)cc1-c1c(O)cnn(C(C)C)c1=O [Compound 2-171]
[1]
  Growth inhibition rate (%) Green foxtail: 93%
[2]
  Growth inhibition rate (%) Redroot pigweed: 0%
[3]
  Growth inhibition rate (%) Crabgrass: 90%
Corn (Zea mays L.) [4]
  Growth inhibition rate (%) Corn: 80%
[5]
  Growth inhibition rate (%) Barnyardgrass: 99%
Rice (Oryza sativa L.) [6]
  Growth inhibition rate (%) Rice: 25%
[7]
  Growth inhibition rate (%) Soybean: 30%
[8]
  Growth inhibition rate (%) Wheat: 0%
[9]
  Growth inhibition rate (%) Italian ryegrass: 30%
[10]
  Growth inhibition rate (%) Wild oat: 0%
[11]
  Growth inhibition rate (%) Prickly sida: 0%
[12]
  Growth inhibition rate (%) Green foxtail: 75%
[13]
  Growth inhibition rate (%) Redroot pigweed: 0%
Corn (Zea mays L.) [14]
  Growth inhibition rate (%) Corn: 0%
[15]
  Growth inhibition rate (%) Barnyardgrass: 65%
Rice (Oryza sativa L.) [16]
  Growth inhibition rate (%) Rice: 0%
[17]
  Growth inhibition rate (%) Soybean: 0%
[18]
  Growth inhibition rate (%) Wheat: 0%
[19]
  Growth inhibition rate (%) Crabgrass: 30%
[20]
  Growth inhibition rate (%) Velvetleaf: 0%
